These are literature values, as cited in US12545694B2, “Cannabidiol derivatives, preparation method thereof and use thereof” (CHENGDU BAIYU PHARMACEUTICAL CO., LTD., priority 2020, dated 2026).

For the series the following is noted: human.

Turning to `C=C(C)[C@@H]1CCC(C)=C[C@H]1c1c(O)cc(CCCCC)cc1O` [CBD, cannabidiol], the oral bioavailability entry was “about 6%”.
